Laboratory results taken from US10160743B2, “Sulphamoylthiophenamide derivatives and the use thereof as medicaments for the treatment of hepatitis B” (Janssen Sciences Ireland UC, priority 2013, dated 2018).
pEC50: −log10 of the molar value.

Assays:
HBV [1] = assay: Anti-HBV activity, HepG2.2.15 cell line, HBV DNA from secreted virions by realtime PCR; assay type: cell-based, Hepatitis B virus; conditions: HepG2.2.15 cells, 6 days of treatment
HBV [2] = assay: Anti-HBV activity, HepG2.117 cell line (Tet-off), intracellular HBV DNA by realtime PCR; assay type: cell-based, Hepatitis B virus; conditions: HepG2.117 cells, 3 days of treatment
HepG2 cells = assay: Cytotoxicity in HepG2 cells, Resazurin assay; assay type: cell-based; conditions: incubated for 4 days, Resazurin viability
[3] = Cytotoxicity in HepG2 cells, Resazurin assay; assay type: cell-based; conditions: human, incubated for 4 days, Resazurin viability
[4] = Hepatitis B virus, HepG2.2.15, 144 h
[5] = Hepatitis B virus, HepG2.117, 72 h

**Q.** Which results are given for Cc1cc(NC(=O)c2cc(S(=O)(=O)NC3(C)CCOC3)sc2C)ccc1F (racemic) [Compound 16a, N-(4-fluoro-3-methyl-phenyl)-2-methyl-5-[(3-methyltetrahydrofuran-3yl)sulfamoyl]thiophene-3-carboxamide]?
**A.** pEC50 (HBV [1]): 7.12; pEC50 (HBV [2]): 7.06; CC50 (HepG2 cells): > 25000 nM

**Q.** With Cc1cc(NC(=O)c2cc(S(=O)(=O)NC3(C)CCOC3)sc2C)ccc1F (racemic) [Compound 16b, N-(4-fluoro-3-methyl-phenyl)-2-methyl-5-[(3-methyltetrahydrofuran-3yl)sulfamoyl]thiophene-3-carboxamide] as the molecule, how does the pEC50 (HBV [1]) read?
**A.** 7.55

**Q.** What about the pEC50 (HBV [2]) of the same molecule?
**A.** 7.59

**Q.** And the CC50 (HepG2 cells)?
**A.** > 25000 nM

**Q.** Which results are given for Cc1sc(S(=O)(=O)NC(C)(C)C(F)(F)F)cc1C(=O)Nc1cccc(C(F)(F)F)c1 [Compound 42, 2-methyl-5-[(2,2,2-trifluoro-1,1-dimethyl-ethyl)sulfamoyl]-N-[3-(trifluoromethyl)phenyl]thiophene-3-carboxamide]?
**A.** pEC50 (HBV [1]; [4]): 6.28; pEC50 (HBV [2]; [5]): < 6.00; CC50 at 4 days [3]: 16900 nM

**Q.** With Cc1sc(S(=O)(=O)NC(CF)CF)cc1C(=O)Nc1ccc(F)c(C#N)c1 [Compound 43, N-(3-cyano-4-fluoro-phenyl)-5-[[2-fluoro-1-(fluoromethyl)ethyl]sulfamoyl]-2-methyl-thiophene-3-carboxamide] as the molecule, how does the pEC50 (HBV [1]; [4]) read?
**A.** 6.48

**Q.** What about the pEC50 (HBV [2]; [5]) of the same molecule?
**A.** 6.17

**Q.** What about the CC50 at 4 days [3] of the same molecule?
**A.** > 25000 nM

**Q.** With Cc1cc(NC(=O)c2cc(S(=O)(=O)NC3(C)COC3)sc2C)cc(C#N)c1F [Compound 44, N-(3-cyano-4-fluoro-5-methyl-phenyl)-2-methyl-5-[(3-methyloxetan-3-yl)sulfamoyl]thiophene-3-carboxamide] as the molecule, how does the pEC50 (HBV [1]; [4]) read?
**A.** 6.09

**Q.** And the pEC50 (HBV [2]; [5])?
**A.** 6.35

**Q.** And the CC50 at 4 days [3]?
**A.** > 25000 nM

**Q.** With Cc1sc(S(=O)(=O)NC(C)(C)C(F)(F)F)cc1C(=O)Nc1ccc(F)c(C#N)c1 [Compound 45, N-(3-cyano-4-fluoro-phenyl)-2-methyl-5-[(2,2,2-trifluoro-1,1-dimethyl-ethyl)sulfamoyl]thiophene-3-carboxamide] as the molecule, how does the pEC50 (HBV [1]; [4]) read?
**A.** 6.55

**Q.** What about the pEC50 (HBV [2]; [5]) of the same molecule?
**A.** 6.38

**Q.** And the CC50 at 4 days [3]?
**A.** > 25000 nM

**Q.** Which results are given for Cc1sc(S(=O)(=O)N[C@@H](C)C(F)(F)F)cc1C(=O)Nc1ccc(F)c(C#N)c1 [Compound 46, N-(3-cyano-4-fluoro-phenyl)-2-methyl-5-[[(1S)-2,2,2-trifluoro-1-methyl-ethyl]sulfamoyl]thiophene-3-carboxamide]?
**A.** pEC50 (HBV [1]; [4]): 6.40; pEC50 (HBV [2]; [5]): 6.38; CC50 at 4 days [3]: > 25000 nM

**Q.** With Cc1sc(S(=O)(=O)N[C@@H](C)C(C)(F)F)cc1C(=O)Nc1ccc(F)c(F)c1 [Compound 47, 5-[[(1S)-2,2-difluoro-1-methyl-propyl]sulfamoyl]-N-(3,4-difluorophenyl)-2-methyl-thiophene-3-carboxamide] as the molecule, how does the pEC50 (HBV [1]; [4]) read?
**A.** 6.80

**Q.** What about the pEC50 (HBV [2]; [5]) of the same molecule?
**A.** 6.47

**Q.** And the CC50 at 4 days [3]?
**A.** 14300 nM

**Q.** What does the source list for Cc1sc(S(=O)(=O)N[C@H](C)C(F)(F)F)cc1C(=O)Nc1ccc(F)c(Br)c1 [Compound 48, N-(3-bromo-4-fluoro-phenyl)-2-methyl-5-[[(1R)-2,2,2-trifluoro-1-methyl-ethyl]sulfamoyl]thiophene-3-carboxamide]?
**A.** pEC50 (HBV [1]; [4]): 6.80; pEC50 (HBV [2]; [5]): 6.55; CC50 at 4 days [3]: 7730 nM

**Q.** With Cc1sc(S(=O)(=O)NC2(C(F)(F)F)CCOC2)cc1C(=O)Nc1ccc(F)c(F)c1 (stereo not drawn) [Compound 49, N-(3,4-difluorophenyl)-2-methyl-5-[[3-(trifluoromethyl)tetrahydrofuran-3-yl]sulfamoyl]thiophene-3-carboxamide] as the molecule, how does the pEC50 (HBV [1]; [4]) read?
**A.** 6.54

**Q.** And the pEC50 (HBV [2]; [5])?
**A.** 6.57

**Q.** And the CC50 at 4 days [3]?
**A.** > 25000 nM

**Q.** What does the source list for Cc1sc(S(=O)(=O)NC(C)(C)C(F)(F)F)cc1C(=O)Nc1ccc(F)c(F)c1 [Compound 50, N-(3,4-difluorophenyl)-2-methyl-5-[(2,2,2-trifluoro-1,1-dimethyl-ethyl)sulfamoyl]thiophene-3-carboxamide]?
**A.** pEC50 (HBV [1]; [4]): 6.85; pEC50 (HBV [2]; [5]): 6.72; CC50 at 4 days [3]: > 25000 nM

**Q.** With Cc1sc(S(=O)(=O)N[C@H](C)C(F)(F)F)cc1C(=O)Nc1ccc(F)c(C#N)c1 [Compound 51, N-(3-cyano-4-fluoro-phenyl)-2-methyl-5-[[(1R)-2,2,2-trifluoro-1-methyl-ethyl]sulfamoyl]thiophene-3-carboxamide] as the molecule, how does the pEC50 (HBV [1]; [4]) read?
**A.** 6.60

**Q.** What about the pEC50 (HBV [2]; [5]) of the same molecule?
**A.** 6.77

**Q.** And the CC50 at 4 days [3]?
**A.** > 25000 nM

**Q.** Which results are given for Cc1sc(S(=O)(=O)NC(CF)CF)cc1C(=O)Nc1ccc(F)c(F)c1 [Compound 52, N-(3,4-difluorophenyl)-5-[[2-fluoro-1-(fluoromethyl)ethyl]sulfamoyl]-2-meth thiophene-3-carboxamide]?
**A.** pEC50 (HBV [1]; [4]): 6.77; pEC50 (HBV [2]; [5]): 6.77; CC50 at 4 days [3]: > 25000 nM

**Q.** With Cc1sc(S(=O)(=O)NC2(C(F)(F)F)CC2)cc1C(=O)Nc1ccc(F)c(C#N)c1 [Compound 53, N-(3-cyano-4-fluoro-phenyl)-2-methyl-5-[[1-(trifluoromethyl)cyclo-propyl]sulfamoyl]thiophene-3-carboxamide] as the molecule, how does the pEC50 (HBV [1]; [4]) read?
**A.** 6.92

**Q.** And the pEC50 (HBV [2]; [5])?
**A.** 6.85

**Q.** What about the CC50 at 4 days [3] of the same molecule?
**A.** 13700 nM

**Q.** What does the source list for Cc1sc(S(=O)(=O)N[C@H](C)C(C)(F)F)cc1C(=O)Nc1ccc(F)c(F)c1 [Compound 55, 5-[[(1R)-2,2-difluoro-1-methyl-propyl]sulfamoyl]-N-(3,4-difluorophenyl)-2-methyl-thiophene-3-carboxamide]?
**A.** pEC50 (HBV [1]; [4]): 7.49; pEC50 (HBV [2]; [5]): 7.05; CC50 at 4 days [3]: 14600 nM

**Q.** Which results are given for Cc1sc(S(=O)(=O)N[C@H](C)C(F)(F)F)cc1C(=O)Nc1ccc(F)c(F)c1 [Compound 56, N-(3,4-difluorophenyl)-2-methyl-5-[[(1R)-2,2,2-trifluoro-1-methyl-ethyl]sulfamoyl]thiophene-3-carboxamide]?
**A.** pEC50 (HBV [1]; [4]): 6.89; pEC50 (HBV [2]; [5]): 7.15; CC50 at 4 days [3]: 14900 nM
